According to patent publication US11331339B2, “Compound composition with function of promoting bone and joint health and application thereof” (Chenland Nutritionals, Inc., priority 2019, dated 2022):

Columns and labels:
IL-1β = assay: Test I: IL-1β content in serum of rats injected with papain, administered 28 days; format: in vivo, wistar rats; settings: rat serum, papain model, daily dosage 126 mg/kg
Experimental: Male wistar rats are randomly divided into a control group, a model group and an experimental group. Each group includes 10 rats. The rats are injected with papain for molding. The rats are administered for 28 days at the same time of molding. Before the rats are put to death, blood is taken from the abdominal vein and centrifuged to obtain serum. The IL-1β content is detected. Specific results are shown in Table 1: The blank group includes normal rats for arthritis modeling. The model group includes rats not administered after modeling. The experimental administration group administers the product of the present invention to the rats. The glucosamine sulfate control group administers glucosamine to the rats. The glucosamine+chondroitin sulfate+collagen control group administers glucosamine+chondroitin sulfate+collagen to the rats. IL-1β is an inflammatory factor in the serum. Normal rats contain the lowest levels of inflammatory factors, and the rats with arthritis but not administered contain the highest levels of inflammatory factors. If different products are administered to rats, the degree of arthritis is alleviated to a certain extent and the levels of inflammatory factors in the rats are reduced to be lower than that of the highest model group, but higher than normal rats.

[1] = test system: wistar rats injected with papain; assay: Test II: tenderness thresholds at modeling joints, measured with a tenderness meter; format: in vivo; settings: papain model, 28 days, daily dosage 126 mg/kg
Experimental: Male wistar rats are randomly divided into a control group, a model group and an experimental group. Each group includes 10 rats. The rats are injected with papain for molding. The rats are administered for 28 days at the same time of molding. Before the rats are put to death, the tenderness thresholds at modeling joints are measured with a tenderness meter.

IL-6 = assay: Test I: IL-6 content in serum of rats, same administration time and same dosage; format: in vivo, wistar rats; settings: rat serum, daily dosage 125 mg/kg
Experimental: Male wistar rats are randomly divided into a control group, a model group and an experimental group. Each group includes 10 rats. The rats are injected with papain for molding. The rats are administered for 28 days at the same time of molding. Before the rats are put to death, blood is taken from the abdominal vein and centrifuged to obtain serum. The IL-1β content is detected. Specific results are shown in Table 1: In addition, to verify the technical solution of the present invention and small daily dosage of the single glucosamine, the inventor respectively experiments the male wistar rats in the same administration time and under the same administration dosage, and detects the IL-6 content in the serum.

[2] = test system: wistar rats injected with papain; assay: Test IV: walking pain score from sole marks; format: in vivo; settings: score 0-4, papain model, 28 days, daily dosage 126 mg/kg
Experimental: Male wistar rats are randomly divided into a control group, a model group and an experimental group. Each group includes 10 rats. The rats are injected with papain for molding. The rats are administered for 28 days at the same time of molding. Before the rats are put to death, the left and right soles of the rats are evenly imprinted with printing ink of the same color and the rats walk by 0.4 m on a self-made semi-closed rat walking passage. The sole marks are photographed. Three persons independently score the walking pain based on the sole photos according to the following scoring standard for walking pain and measure the walking pain (when the limbs have a pain reaction, the rats move with the minimum contact area of the paws to reduce the pressure on the affected limbs; and when the left and right feet are uneven in stress and the gait is changed, the colors of the soles are different). The sole is divided into four regions: if one region of the left sole is darker than the right sole, the score is 1; if two regions are darker, the score is 2; and the score is added in sequence (0-4 scores). […] The rats administered with the product can alleviate the arthritis to a certain extent, and can walk slightly normally, so as to reflect the degree of arthritis according to the walking scores.

## N[C@H]1C(O)O[C@H](CO)[C@@H](O)[C@@H]1O.O=S(=O)(O)O (some centres unmarked) [Glucosamine sulfate control group 1, Glucosamine sulfate]
IL-1β
  IL-1β content: 9.456 ± 1.657 ng/L
[1]
  Tenderness thresholds: 5.607 ± 0.2602 newton
IL-6; listed as Glucosamine sulfate control group
  IL-6 content: 146.19 ± 18.15 ng/L
IL-6; listed as glucosamine sulfate control group
  IL-6 content: not obviously lower than the model group
[2]
  Scores of walking pain: 0.5 ± 0.2303
